From ChEMBL document CHEMBL3885881, “DrugMatrix”

Species: Rattus norvegicus
Assay: DrugMatrix - Regimen: Daily Repeat
Format: toxicity, organism-based, Sprague-Dawley
Set-up: regimen Daily Repeat, gender Male, age 6-8 weeks
Details: in vivo, po, route oral GAVAGE, vehicle 100 % WATER; for ABSOLUTE BASOPHIL / ABSOLUTE EOSINOPHIL / ABSOLUTE LYMPHOCYTE / ABSOLUTE MONOCYTE / ABSOLUTE SEGMENTED NEUTROPHIL / BASOPHIL / EOSINOPHIL / ERYTHROCYTE COUNT / HEMATOCRIT / HEMOGLOBIN / LEUKOCYTE COUNT / LYMPHOCYTE / MEAN CORPUSCULAR HEMOGLOBIN / MEAN CORPUSCULAR HEMOGLOBIN CONCENTRATION / MONOCYTE / NEUTROPHIL / NUCLEATED RED BLOOD CELLS / PLATELET COUNT: tissue Blood; for ALANINE AMINOTRANSFERASE / ALBUMIN / ALKALINE PHOSPHATASE / ASPARTATE AMINOTRANSFERASE / BLOOD UREA NITROGEN / CARBON DIOXIDE / CHLORIDE / CREATINE PHOSPHOKINASE / CREATININE / GLUCOSE / LACTATE DEHYDROGENASE / LIPASE / PHOSPHORUS / POTASSIUM / SODIUM / TOTAL BILIRUBIN / TOTAL PROTEIN / URIC ACID / CHOLESTEROL: tissue Plasma
[1] = 35 mg/kg, 120 h, dose level Low, time 5 day
[2] = 1300 mg/kg, 72 h, dose level High, time 3 day
[3] = 1300 mg/kg, 120 h, dose level High, time 5 day

Structure (SMILES): Nc1ccn([C@@H]2CS[C@H](CO)O2)c(=O)n1 [LAMIVUDINE]
- ABSOLUTE BASOPHIL [1]: 0 CELLS/uL
- ABSOLUTE EOSINOPHIL [1]: 0 CELLS/uL
- ABSOLUTE LYMPHOCYTE [1]: 6530 CELLS/uL
- ABSOLUTE MONOCYTE [1]: 98.67 CELLS/uL
- ABSOLUTE SEGMENTED NEUTROPHIL [1]: 638 CELLS/uL
- BASOPHIL [1]: 0%
- EOSINOPHIL [1]: 0%
- ERYTHROCYTE COUNT [1]: 5.57 x10E6/uL
- HEMATOCRIT [1]: 34.73%
- HEMOGLOBIN [1]: 13.6 G/DL
- LEUKOCYTE COUNT [1]: 7.27 x10E3/uL
- LYMPHOCYTE [1]: 89.67%
- MEAN CORPUSCULAR HEMOGLOBIN [1]: 24.43 pg
- MEAN CORPUSCULAR HEMOGLOBIN CONCENTRATION [1]: 39.2 G/DL
- MONOCYTE [1]: 1.33%
- NEUTROPHIL [1]: 9%
- NUCLEATED RED BLOOD CELLS [1]: 0.33 /100WBC
- PLATELET COUNT [1]: 1079.33 x10E3/uL
- ALANINE AMINOTRANSFERASE [1]: 45.33 u/L
- ALBUMIN [1]: 4.1 G/DL
- ALKALINE PHOSPHATASE [1]: 359.67 u/L
- ASPARTATE AMINOTRANSFERASE [1]: 82.67 u/L
- BLOOD UREA NITROGEN [1]: 16.67 mg/dL
- CARBON DIOXIDE [1]: 31.33 mmol/L
- CHLORIDE [1]: 100.33 MEQ/L
- CREATINE PHOSPHOKINASE [1]: 391.67 u/L
- CREATININE [1]: 0.16 mg/dL
- GLUCOSE [1]: 152 mg/dL
- LACTATE DEHYDROGENASE [1]: 141.33 u/L
- LIPASE [1]: 8.33 u/L
- PHOSPHORUS [1]: 11.47 mg/dL
- POTASSIUM [1]: 5.48 MEQ/L
- SODIUM [1]: 144.47 MEQ/L
- TOTAL BILIRUBIN [1]: 0.2 mg/dL
- TOTAL PROTEIN [1]: 6.13 G/DL
- URIC ACID [1]: 0.6 mg/dL
- ABSOLUTE BASOPHIL [2]: 0 CELLS/uL
- ABSOLUTE EOSINOPHIL [2]: 0 CELLS/uL
- ABSOLUTE LYMPHOCYTE [2]: 11276.67 CELLS/uL
- ABSOLUTE MONOCYTE [2]: 81 CELLS/uL
- ABSOLUTE SEGMENTED NEUTROPHIL [2]: 842.33 CELLS/uL
- BASOPHIL [2]: 0%
- EOSINOPHIL [2]: 0%
- ERYTHROCYTE COUNT [2]: 5.54 x10E6/uL
- HEMATOCRIT [2]: 34.33%
- HEMOGLOBIN [2]: 13.53 G/DL
- LEUKOCYTE COUNT [2]: 12.2 x10E3/uL
- LYMPHOCYTE [2]: 92.33%
- MEAN CORPUSCULAR HEMOGLOBIN [2]: 24.43 pg
- MEAN CORPUSCULAR HEMOGLOBIN CONCENTRATION [2]: 39.4 G/DL
- MONOCYTE [2]: 0.67%
- NEUTROPHIL [2]: 7%
- NUCLEATED RED BLOOD CELLS [2]: 0.33 /100WBC
- PLATELET COUNT [2]: 1155.33 x10E3/uL
- ALANINE AMINOTRANSFERASE [2]: 45.67 u/L
- ALBUMIN [2]: 4 G/DL
- ALKALINE PHOSPHATASE [2]: 373.67 u/L
- ASPARTATE AMINOTRANSFERASE [2]: 80 u/L
- BLOOD UREA NITROGEN [2]: 10.67 mg/dL
- CARBON DIOXIDE [2]: 27 mmol/L
- CHLORIDE [2]: 102.33 MEQ/L
- CHOLESTEROL [2]: 78.67 mg/dL
- CREATINE PHOSPHOKINASE [2]: 337 u/L
- CREATININE [2]: 0.17 mg/dL
- GLUCOSE [2]: 141 mg/dL
- LACTATE DEHYDROGENASE [2]: 297.67 u/L
- LIPASE [2]: 9.67 u/L
- PHOSPHORUS [2]: 11.83 mg/dL
- POTASSIUM [2]: 6.19 MEQ/L
- SODIUM [2]: 143.47 MEQ/L
- TOTAL BILIRUBIN [2]: 0.13 mg/dL
- TOTAL PROTEIN [2]: 5.8 G/DL
- URIC ACID [2]: 1.57 mg/dL
- ABSOLUTE BASOPHIL [3]: 0 CELLS/uL
- ABSOLUTE EOSINOPHIL [3]: 61 CELLS/uL
- ABSOLUTE LYMPHOCYTE [3]: 14479 CELLS/uL
- ABSOLUTE MONOCYTE [3]: 224.33 CELLS/uL
- ABSOLUTE SEGMENTED NEUTROPHIL [3]: 1569 CELLS/uL
- BASOPHIL [3]: 0%
- EOSINOPHIL [3]: 0.33%
- ERYTHROCYTE COUNT [3]: 5.68 x10E6/uL
- HEMATOCRIT [3]: 36.2%
- HEMOGLOBIN [3]: 13.93 G/DL
- LEUKOCYTE COUNT [3]: 16.33 x10E3/uL
- LYMPHOCYTE [3]: 88.67%
- MEAN CORPUSCULAR HEMOGLOBIN [3]: 24.5 pg
- MEAN CORPUSCULAR HEMOGLOBIN CONCENTRATION [3]: 38.5 G/DL
- MONOCYTE [3]: 1.33%
- NEUTROPHIL [3]: 9.67%
- NUCLEATED RED BLOOD CELLS [3]: 0 /100WBC
- PLATELET COUNT [3]: 1204.33 x10E3/uL
- ALANINE AMINOTRANSFERASE [3]: 50 u/L
- ALBUMIN [3]: 3.9 G/DL
- ALKALINE PHOSPHATASE [3]: 303.67 u/L
- ASPARTATE AMINOTRANSFERASE [3]: 84.33 u/L
- BLOOD UREA NITROGEN [3]: 15 mg/dL
- CARBON DIOXIDE [3]: 24.33 mmol/L
- CHLORIDE [3]: 102 MEQ/L
- CHOLESTEROL [3]: 70 mg/dL
- CREATINE PHOSPHOKINASE [3]: 295.33 u/L
- CREATININE [3]: 0.2 mg/dL
- GLUCOSE [3]: 162.67 mg/dL
- LACTATE DEHYDROGENASE [3]: 239 u/L
- LIPASE [3]: 11 u/L
- PHOSPHORUS [3]: 11.9 mg/dL
- POTASSIUM [3]: 6.04 MEQ/L
- SODIUM [3]: 143.87 MEQ/L
- TOTAL BILIRUBIN [3]: 0.17 mg/dL
- TOTAL PROTEIN [3]: 5.73 G/DL
- URIC ACID [3]: 1.53 mg/dL
